Measurements: PMC11299587 (ACS infectious diseases, 2024)
Where two headings read alike, the source gives them in different places.

Assays:
[1] = target: T1, TgcPheRS (Toxoplasma gondii cytosolic phenylalanyl-tRNA synthetase, alpha subunit) (Toxoplasma gondii, UniProt A0A125YPN6+S8EZ50); experiment: thermal shift assay; assay type: binding
T1 sequence (A0A125YPN6 1-525): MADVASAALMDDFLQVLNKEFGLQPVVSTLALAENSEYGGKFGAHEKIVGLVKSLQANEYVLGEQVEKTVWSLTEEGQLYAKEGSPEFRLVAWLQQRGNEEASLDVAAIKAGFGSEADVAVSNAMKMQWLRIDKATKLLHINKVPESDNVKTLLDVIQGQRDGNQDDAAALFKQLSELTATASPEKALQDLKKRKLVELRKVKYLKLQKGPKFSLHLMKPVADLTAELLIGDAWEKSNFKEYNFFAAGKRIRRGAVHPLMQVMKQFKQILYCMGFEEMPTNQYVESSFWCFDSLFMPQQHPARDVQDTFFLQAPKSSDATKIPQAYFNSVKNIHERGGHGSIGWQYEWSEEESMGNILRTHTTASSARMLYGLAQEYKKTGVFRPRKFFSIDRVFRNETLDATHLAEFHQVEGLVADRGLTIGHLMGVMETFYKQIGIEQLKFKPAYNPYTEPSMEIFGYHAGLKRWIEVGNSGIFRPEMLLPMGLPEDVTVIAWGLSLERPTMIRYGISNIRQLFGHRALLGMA
T1 sequence (S8EZ50 1-675): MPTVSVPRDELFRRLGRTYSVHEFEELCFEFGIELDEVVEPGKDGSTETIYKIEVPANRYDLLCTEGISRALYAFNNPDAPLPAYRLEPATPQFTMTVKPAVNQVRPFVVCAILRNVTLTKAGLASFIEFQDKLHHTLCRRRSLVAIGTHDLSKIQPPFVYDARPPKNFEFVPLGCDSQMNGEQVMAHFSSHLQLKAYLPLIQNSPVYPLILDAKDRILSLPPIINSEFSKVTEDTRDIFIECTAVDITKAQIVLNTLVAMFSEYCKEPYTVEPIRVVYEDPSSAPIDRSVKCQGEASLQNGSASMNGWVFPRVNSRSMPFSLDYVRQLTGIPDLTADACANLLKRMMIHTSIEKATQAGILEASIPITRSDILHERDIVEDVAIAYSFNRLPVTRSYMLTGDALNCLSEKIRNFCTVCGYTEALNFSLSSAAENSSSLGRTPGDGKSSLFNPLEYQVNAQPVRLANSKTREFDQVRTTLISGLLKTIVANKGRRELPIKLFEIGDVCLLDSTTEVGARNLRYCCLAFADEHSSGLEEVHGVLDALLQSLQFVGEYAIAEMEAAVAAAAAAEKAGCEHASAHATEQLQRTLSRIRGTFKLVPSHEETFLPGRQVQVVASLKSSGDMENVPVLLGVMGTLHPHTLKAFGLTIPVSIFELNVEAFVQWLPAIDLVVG

[2] = target: T2, HscPheRS (human cytosolic phenylalanyl-tRNA synthetase, alpha subunit) (Homo sapiens, UniProt Q9Y285); experiment: malachite green aminoacylation assay with purified enzyme; assay type: biochemical; details: read-out: BRD7929
T2 sequence (Q9Y285 2-508): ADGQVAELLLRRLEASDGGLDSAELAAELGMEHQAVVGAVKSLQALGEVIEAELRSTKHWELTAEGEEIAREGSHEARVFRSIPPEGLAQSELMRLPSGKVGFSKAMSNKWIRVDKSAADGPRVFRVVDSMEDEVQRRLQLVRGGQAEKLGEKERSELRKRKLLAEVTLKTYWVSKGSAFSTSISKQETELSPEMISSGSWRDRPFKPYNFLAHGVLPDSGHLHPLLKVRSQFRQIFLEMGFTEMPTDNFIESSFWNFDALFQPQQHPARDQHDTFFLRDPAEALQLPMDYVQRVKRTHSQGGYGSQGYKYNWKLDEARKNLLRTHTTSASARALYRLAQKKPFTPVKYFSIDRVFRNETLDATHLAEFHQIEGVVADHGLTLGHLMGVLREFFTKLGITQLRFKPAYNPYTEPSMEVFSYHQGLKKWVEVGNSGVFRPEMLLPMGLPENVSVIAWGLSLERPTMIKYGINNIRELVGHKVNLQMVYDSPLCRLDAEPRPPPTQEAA
T2 sequence (Q9NSD9 1-589 partner): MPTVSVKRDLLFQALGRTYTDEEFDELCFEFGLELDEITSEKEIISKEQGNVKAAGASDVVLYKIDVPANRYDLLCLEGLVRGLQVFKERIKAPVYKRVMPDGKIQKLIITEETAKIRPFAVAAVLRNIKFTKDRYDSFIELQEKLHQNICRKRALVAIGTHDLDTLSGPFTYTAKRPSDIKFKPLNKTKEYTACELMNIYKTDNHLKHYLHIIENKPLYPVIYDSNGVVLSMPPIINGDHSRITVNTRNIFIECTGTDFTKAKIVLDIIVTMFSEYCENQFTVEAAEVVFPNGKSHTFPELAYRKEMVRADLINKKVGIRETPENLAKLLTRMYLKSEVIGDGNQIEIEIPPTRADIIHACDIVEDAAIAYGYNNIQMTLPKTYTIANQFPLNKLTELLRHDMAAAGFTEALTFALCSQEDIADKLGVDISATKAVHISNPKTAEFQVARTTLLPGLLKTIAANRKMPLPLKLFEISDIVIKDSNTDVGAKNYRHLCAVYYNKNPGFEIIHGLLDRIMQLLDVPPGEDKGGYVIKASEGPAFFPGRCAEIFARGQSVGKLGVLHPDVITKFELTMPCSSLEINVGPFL

[3] = target: T2, HscPheRS (human cytosolic phenylalanyl-tRNA synthetase, alpha subunit); experiment: as above; assay type: biochemical; details: read-out: BRD2108
[4] = target: T1, TgcPheRS (Toxoplasma gondii cytosolic phenylalanyl-tRNA synthetase, alpha subunit); experiment: as above; assay type: biochemical
[5] = target: T2, HscPheRS (human cytosolic phenylalanyl-tRNA synthetase, alpha subunit); experiment: as above; assay type: biochemical
[6] = target: T1, TgcPheRS (Toxoplasma gondii cytosolic phenylalanyl-tRNA synthetase, alpha subunit); experiment: as above; assay type: biochemical; remark: listed apart in the source

COc1ccc(NC(=O)N2CCCCN3[C@H](CN(C)C)[C@H](c4ccc(C#Cc5ccccc5)cc4)[C@@H]3C2)cc1 [BRD7929]
BRD7929 [1]: 11.6 °C
IC50 [2]: 18 µM

BRD2108
IC50 [3]: 15.6 µM
IC50 [4]: 420 nM

COc1ccc(NC(=O)N2CCCN3CC[C@H](c4ccc(C#CC5=CCCCC5)cc4)[C@@H]3C2)cc1 [mCMY416]
IC50 [5]: 3.58 µM
IC50 [6]: 240 nM
